Read-outs that look alike come from different tables or passages of the source.

By AUC is commonly meant concentration integrated over time. A low value points to less exposure.

Assay in data set [1]: not given
The source holds these as a separate data set.

For data set [2], the target named is T1, calcium-sensing receptor (CaR) (Homo sapiens, UniProt P41180).
T1 sequence (P41180 20-1078): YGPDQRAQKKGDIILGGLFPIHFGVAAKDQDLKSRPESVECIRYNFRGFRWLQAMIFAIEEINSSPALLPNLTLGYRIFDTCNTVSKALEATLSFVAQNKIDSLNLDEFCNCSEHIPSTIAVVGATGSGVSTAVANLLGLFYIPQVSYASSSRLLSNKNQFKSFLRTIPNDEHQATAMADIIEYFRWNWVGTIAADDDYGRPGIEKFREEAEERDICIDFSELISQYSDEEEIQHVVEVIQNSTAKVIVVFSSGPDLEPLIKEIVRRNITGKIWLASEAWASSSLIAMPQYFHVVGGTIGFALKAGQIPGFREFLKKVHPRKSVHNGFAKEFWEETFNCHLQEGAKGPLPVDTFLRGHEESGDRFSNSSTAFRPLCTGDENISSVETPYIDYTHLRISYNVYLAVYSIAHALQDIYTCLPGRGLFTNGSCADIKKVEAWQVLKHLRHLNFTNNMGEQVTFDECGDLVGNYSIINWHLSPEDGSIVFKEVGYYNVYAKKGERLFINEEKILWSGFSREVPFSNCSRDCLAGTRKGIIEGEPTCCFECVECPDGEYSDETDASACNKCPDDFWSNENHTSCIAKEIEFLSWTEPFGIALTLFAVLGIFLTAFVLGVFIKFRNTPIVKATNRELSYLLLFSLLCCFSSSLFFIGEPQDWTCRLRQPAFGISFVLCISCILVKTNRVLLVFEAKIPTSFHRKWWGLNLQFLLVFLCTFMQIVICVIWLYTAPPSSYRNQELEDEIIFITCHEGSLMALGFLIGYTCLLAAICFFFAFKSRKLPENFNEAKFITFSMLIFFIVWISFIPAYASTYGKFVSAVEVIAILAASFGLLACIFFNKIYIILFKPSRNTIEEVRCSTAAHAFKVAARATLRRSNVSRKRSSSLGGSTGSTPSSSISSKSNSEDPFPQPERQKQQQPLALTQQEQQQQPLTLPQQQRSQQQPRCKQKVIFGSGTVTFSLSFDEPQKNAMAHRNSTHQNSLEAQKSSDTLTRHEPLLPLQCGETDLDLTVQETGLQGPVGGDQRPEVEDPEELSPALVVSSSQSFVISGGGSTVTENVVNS
The note with it: studies have shown; cited from earlier work.

Take `O=C([O-])/C=C/C(=O)[O-].[Sr+2]` [Fumerate, strontium fumarate]: the “SOLUBILITY AT 40° C. pH 7.5” value came to 977 mg/L and the “SOLUBILITY AT ROOM TEMPERATURE (22-24° C.) pH 7.5” value (shortened to “SOLUBILITY AT ROOM TEMPERATURE”) came out at 1215 mg/L.
As for `N#Cc1c(N(CC(=O)[O-])CC(=O)[O-])sc(C(=O)[O-])c1CC(=O)[O-].[Sr+2].[Sr+2]` [Ranelate, distrontium salt of 2-[N,N-di(carboxymethyl)amino]-3-cyano-4-carboxymethylthiophene-5-carboxylic acid, reference compound], the “SOLUBILITY AT 40° C. pH 7.5” value is 1970 mg/L and the “SOLUBILITY AT ROOM TEMPERATURE” value is reported as 890 mg/L. In addition, the “time to maximum serum strontium concentration” value in data set [1] (rat, in vivo, po) is “approximately 2 hours”.
For `[Sr+2]` [strontium], in data set [2], the “activity at the calcium-sensing receptor (CaR)” value is given as “full agonist”.
In the case of “strontium alpha-ketoglutarate [α-ketogluterate]”, in data set [1] (rats, FIGS. 9A-B), the “rate of metabolism (second peak of model fit)” value was “quickly metabolized”.
For `N[C@@H](CCC(=O)[O-])C(=O)[O-].O.O.O.O.O.O.[Sr+2]` [L-glutamate, strontium glutamate hexahydrate], in data set [1] (female, Wistar HanTac:WH (GALAS), rat, in vivo, po), the AUC was 10100 mg·min/L. The “rate of metabolism (second peak of model fit)” value in data set [1] (rat, in vivo) is “rests longer in the serum”.
Turning to `[Cl-].[Cl-].[Sr+2]` [Chloride, strontium chloride, reference compound], the AUC in data set [1] (rat, in vivo, po) is 7300 mg·min/L. The “time to maximum serum strontium concentration” value in data set [1] (rats, single oral gavage) is given as “approximately 2 hours”.
Take `O=C([O-])/C=C\C(=O)[O-].[Sr+2]` [Maleate, strontium maleate]: the “SOLUBILITY AT 40° C. pH 7.5” value was found to be 1457 mg/L and the “SOLUBILITY AT ROOM TEMPERATURE” value is given as 1680 mg/L.

Values taken from patent publication US8541471B2, “Water-soluble strontium salts for use in treatment of cartilage and/or bone conditions” (Osteologix A/S, priority 2003, dated 2013).
